What was measured:
Assay in all cases: radiometric filter-binding kinase assay
[1] = molecular target: PLK1 (human) (UniProt P53350)
[2] = molecular target: MAPKAPK3 (human) (UniProt Q16644)
[3] = system: RPS6KB1 (human), P23443 [T412E]
[4] = molecular target: MKNK2 (human) (UniProt Q9HBH9)
[5] = molecular target: MAPK15 (human) (UniProt Q8TD08)
[6] = molecular target: CHEK2 (human) (UniProt O96017)
[7] = molecular target: NEK2 (human) (UniProt P51955)
[8] = system: PRKAA1 or PRKAA2 (rat); details: accession and sequence are those of the human protein
[9] = molecular target: MAPK1 (human) (UniProt P28482)
[10] = molecular target: MAPK14 (human) (UniProt Q16539)
[11] = molecular target: RPS6KA5 KD1 KD2 (human) (UniProt O75582)
[12] = molecular target: SRC (human) (UniProt P12931)
[13] = molecular target: PAK7 (human) (UniProt Q9P286)
[14] = molecular target: PRKACA (human) (UniProt P17612)
[15] = molecular target: RPS6KA1 KD1 KD2 (human) (UniProt Q15418)
[16] = system: AKT2 (human), P31751 [S474D]
[17] = molecular target: MAP2K1 (human) (UniProt Q02750)
[18] = molecular target: MAPK3 (human) (UniProt P27361)
[19] = molecular target: IKBKB (human) (UniProt O14920)
[20] = molecular target: RPS6KA3 KD1 KD2 (human) (UniProt P51812)
[21] = molecular target: CSNK1D (human) (UniProt P48730)
[22] = molecular target: CDK2 CCNA2 (human) (UniProt P20248+P24941)
[23] = molecular target: PIM2 (human) (UniProt Q9P1W9)
[24] = molecular target: CSK (human) (UniProt P41240)
[25] = molecular target: NEK6 (human) (UniProt Q9HC98)

Chain of MAPK3 (human) (P27361 whole entry, looked up): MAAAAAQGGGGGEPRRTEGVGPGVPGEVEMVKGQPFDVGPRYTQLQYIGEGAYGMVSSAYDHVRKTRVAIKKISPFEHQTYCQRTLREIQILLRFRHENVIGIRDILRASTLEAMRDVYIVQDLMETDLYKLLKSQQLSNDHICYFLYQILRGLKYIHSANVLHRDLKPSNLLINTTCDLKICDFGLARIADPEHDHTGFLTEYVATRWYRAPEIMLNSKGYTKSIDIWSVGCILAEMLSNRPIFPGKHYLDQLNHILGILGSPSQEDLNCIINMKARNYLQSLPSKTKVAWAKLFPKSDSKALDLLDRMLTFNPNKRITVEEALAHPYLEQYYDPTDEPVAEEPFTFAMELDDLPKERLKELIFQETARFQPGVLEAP
Chain of RPS6KA1 KD1 KD2 (human) (Q15418 whole entry, looked up): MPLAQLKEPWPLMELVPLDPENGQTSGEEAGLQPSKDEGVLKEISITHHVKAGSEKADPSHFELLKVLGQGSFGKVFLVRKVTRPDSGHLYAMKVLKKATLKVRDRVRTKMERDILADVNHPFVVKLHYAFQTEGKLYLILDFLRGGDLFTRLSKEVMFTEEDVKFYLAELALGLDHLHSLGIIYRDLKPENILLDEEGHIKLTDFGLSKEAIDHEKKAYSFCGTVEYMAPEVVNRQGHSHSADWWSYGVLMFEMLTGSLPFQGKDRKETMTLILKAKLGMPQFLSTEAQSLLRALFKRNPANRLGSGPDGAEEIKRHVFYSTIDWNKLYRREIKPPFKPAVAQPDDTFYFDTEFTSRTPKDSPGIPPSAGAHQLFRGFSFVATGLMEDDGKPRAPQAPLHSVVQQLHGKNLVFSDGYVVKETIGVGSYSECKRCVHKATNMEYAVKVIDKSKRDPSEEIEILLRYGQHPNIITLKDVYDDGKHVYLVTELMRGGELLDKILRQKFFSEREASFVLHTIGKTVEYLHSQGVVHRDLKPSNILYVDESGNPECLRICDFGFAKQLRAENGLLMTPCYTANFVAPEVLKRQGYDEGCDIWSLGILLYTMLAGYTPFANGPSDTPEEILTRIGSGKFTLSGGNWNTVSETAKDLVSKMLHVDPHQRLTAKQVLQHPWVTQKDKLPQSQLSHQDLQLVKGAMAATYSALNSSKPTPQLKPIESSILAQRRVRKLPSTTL
Chain of MAPK15 (human) (Q8TD08 whole entry, looked up): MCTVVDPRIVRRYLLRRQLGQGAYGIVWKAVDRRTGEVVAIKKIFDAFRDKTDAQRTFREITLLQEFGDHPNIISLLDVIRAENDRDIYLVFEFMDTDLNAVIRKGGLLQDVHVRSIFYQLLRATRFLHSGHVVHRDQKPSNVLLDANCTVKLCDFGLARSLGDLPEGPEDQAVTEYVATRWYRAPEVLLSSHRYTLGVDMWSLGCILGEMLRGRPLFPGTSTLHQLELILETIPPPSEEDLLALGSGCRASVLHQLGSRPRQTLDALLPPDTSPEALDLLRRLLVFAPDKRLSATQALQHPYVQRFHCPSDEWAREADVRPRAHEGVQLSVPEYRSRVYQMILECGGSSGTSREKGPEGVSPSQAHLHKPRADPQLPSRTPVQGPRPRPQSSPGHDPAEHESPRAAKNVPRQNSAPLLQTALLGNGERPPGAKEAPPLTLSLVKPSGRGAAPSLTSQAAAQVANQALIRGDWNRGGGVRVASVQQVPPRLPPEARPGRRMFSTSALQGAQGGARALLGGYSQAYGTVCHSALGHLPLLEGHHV
Chain of CSK (human) (P41240 whole entry, looked up): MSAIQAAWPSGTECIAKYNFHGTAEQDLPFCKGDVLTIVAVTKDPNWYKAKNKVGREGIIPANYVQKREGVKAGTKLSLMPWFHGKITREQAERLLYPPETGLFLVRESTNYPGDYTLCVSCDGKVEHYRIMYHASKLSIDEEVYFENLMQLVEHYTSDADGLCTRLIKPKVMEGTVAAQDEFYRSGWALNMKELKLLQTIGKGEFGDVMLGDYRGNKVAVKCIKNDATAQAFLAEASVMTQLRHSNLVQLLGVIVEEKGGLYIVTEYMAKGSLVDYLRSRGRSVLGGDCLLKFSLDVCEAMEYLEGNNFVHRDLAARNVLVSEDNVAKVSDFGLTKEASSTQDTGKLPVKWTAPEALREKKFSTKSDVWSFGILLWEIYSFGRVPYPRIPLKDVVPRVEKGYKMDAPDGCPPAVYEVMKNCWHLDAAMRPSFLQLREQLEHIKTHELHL
Chain of RPS6KA5 KD1 KD2 (human) (O75582 whole entry, looked up): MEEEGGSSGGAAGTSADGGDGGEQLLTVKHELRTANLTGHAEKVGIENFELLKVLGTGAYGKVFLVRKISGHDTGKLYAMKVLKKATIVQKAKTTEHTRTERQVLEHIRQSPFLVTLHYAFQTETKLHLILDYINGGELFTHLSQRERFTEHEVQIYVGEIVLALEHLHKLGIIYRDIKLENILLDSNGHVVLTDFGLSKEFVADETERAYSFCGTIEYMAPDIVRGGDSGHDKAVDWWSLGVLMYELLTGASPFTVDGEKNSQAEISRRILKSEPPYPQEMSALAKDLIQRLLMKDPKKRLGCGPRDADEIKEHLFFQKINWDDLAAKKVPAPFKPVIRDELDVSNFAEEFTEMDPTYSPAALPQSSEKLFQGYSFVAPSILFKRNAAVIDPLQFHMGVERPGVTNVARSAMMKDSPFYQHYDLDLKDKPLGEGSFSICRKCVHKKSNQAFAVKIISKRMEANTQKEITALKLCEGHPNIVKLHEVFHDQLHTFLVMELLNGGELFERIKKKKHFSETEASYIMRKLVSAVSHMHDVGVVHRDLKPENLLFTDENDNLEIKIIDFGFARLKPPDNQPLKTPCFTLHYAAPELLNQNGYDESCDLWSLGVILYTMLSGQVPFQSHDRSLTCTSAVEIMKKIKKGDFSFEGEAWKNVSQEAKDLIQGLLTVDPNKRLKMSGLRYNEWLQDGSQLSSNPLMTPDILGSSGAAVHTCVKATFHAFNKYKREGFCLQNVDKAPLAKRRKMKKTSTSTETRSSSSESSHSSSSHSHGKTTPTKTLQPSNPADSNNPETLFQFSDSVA
Chain of MKNK2 (human) (Q9HBH9 whole entry, looked up): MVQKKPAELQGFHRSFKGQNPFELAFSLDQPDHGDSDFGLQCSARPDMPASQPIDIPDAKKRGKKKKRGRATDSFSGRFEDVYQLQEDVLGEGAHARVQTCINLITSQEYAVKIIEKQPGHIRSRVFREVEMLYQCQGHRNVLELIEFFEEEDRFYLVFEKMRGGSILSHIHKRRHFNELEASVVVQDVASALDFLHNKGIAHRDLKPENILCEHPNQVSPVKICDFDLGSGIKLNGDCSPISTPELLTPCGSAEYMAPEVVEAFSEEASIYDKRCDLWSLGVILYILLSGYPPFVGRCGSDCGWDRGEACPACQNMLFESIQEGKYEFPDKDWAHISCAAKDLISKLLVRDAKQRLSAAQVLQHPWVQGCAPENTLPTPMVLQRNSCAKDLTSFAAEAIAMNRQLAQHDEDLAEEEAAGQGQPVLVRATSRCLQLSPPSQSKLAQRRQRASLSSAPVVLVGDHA
Chain of MAPK1 (human) (P28482 whole entry, looked up): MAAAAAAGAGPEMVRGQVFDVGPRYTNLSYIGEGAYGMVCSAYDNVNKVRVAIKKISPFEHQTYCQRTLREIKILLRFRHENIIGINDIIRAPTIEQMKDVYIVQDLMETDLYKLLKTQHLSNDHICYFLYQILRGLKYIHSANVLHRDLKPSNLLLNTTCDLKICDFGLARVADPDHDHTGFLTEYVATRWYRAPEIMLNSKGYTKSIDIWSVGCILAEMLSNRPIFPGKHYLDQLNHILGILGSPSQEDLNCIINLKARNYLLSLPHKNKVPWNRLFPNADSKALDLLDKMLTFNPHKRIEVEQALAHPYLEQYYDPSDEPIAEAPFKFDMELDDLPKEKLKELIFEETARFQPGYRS
Chain of MAPKAPK3 (human) (Q16644 whole entry, looked up): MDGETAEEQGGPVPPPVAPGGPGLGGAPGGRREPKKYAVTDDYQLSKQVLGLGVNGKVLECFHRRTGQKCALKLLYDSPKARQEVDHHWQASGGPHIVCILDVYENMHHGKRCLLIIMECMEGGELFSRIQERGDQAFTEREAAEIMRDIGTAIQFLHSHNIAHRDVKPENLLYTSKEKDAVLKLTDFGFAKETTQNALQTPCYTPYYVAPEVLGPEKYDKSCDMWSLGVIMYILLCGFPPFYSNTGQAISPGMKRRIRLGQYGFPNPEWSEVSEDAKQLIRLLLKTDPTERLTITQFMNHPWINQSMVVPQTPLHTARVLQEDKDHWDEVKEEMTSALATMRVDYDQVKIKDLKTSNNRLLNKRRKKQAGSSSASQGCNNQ
Chain of CHEK2 (human) (O96017 whole entry, looked up): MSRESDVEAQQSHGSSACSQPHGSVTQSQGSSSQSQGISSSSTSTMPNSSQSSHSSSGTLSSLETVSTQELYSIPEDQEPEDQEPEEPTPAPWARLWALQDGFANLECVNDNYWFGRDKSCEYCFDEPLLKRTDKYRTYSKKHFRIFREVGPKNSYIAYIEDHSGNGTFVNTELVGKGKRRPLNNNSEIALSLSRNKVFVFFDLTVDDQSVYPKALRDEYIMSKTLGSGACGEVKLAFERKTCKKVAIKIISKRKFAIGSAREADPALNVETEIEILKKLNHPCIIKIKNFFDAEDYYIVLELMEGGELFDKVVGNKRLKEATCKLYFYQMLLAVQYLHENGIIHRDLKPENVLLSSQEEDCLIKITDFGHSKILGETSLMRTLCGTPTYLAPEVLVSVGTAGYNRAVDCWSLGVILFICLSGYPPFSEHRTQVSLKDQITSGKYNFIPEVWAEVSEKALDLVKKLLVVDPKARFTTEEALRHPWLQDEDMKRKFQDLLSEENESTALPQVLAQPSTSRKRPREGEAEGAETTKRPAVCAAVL
Chain of PIM2 (human) (Q9P1W9 whole entry, looked up): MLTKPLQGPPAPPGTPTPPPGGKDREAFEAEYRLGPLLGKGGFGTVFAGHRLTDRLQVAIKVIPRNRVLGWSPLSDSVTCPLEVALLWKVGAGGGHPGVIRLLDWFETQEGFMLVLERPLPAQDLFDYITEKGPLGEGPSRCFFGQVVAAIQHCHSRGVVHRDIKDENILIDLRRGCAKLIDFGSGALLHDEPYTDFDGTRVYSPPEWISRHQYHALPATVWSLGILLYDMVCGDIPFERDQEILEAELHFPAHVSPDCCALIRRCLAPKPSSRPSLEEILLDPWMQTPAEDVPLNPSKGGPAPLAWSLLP

SMILES: Cc1cccc(Nc2nn(C)c3ncnc(N)c23)c1
- residual activity ([1]; compound 1.0 µM): 96%
- residual activity ([1]; compound 10.0 µM): 106%
- residual activity ([2]; compound 1.0 µM): 91%
- residual activity ([2]; compound 10.0 µM): 130%
- residual activity ([3]; compound 1.0 µM): 127%
- residual activity ([3]; compound 10.0 µM): 137%
- residual activity ([4]; compound 1.0 µM): 103%
- residual activity ([4]; compound 10.0 µM): 76%
- residual activity ([5]; compound 1.0 µM): 76%
- residual activity ([5]; compound 10.0 µM): 93%
- residual activity ([6]; compound 1.0 µM): 84%
- residual activity ([6]; compound 10.0 µM): 98%
- residual activity ([7]; compound 1.0 µM): 107%
- residual activity ([7]; compound 10.0 µM): 115%
- residual activity ([8]; compound 1.0 µM): 111%
- residual activity ([8]; compound 10.0 µM): 114%
- residual activity ([9]; compound 1.0 µM): 116%
- residual activity ([9]; compound 10.0 µM): 111%
- residual activity ([10]; compound 1.0 µM): 118%
- residual activity ([10]; compound 10.0 µM): 122%
- residual activity ([11]; compound 1.0 µM): 92%
- residual activity ([11]; compound 10.0 µM): 100%
- residual activity ([12]; compound 1.0 µM): 97%
- residual activity ([12]; compound 10.0 µM): 100%
- residual activity ([13]; compound 1.0 µM): 139%
- residual activity ([13]; compound 10.0 µM): 124%
- residual activity ([14]; compound 1.0 µM): 106%
- residual activity ([14]; compound 10.0 µM): 98%
- residual activity ([15]; compound 1.0 µM): 108%
- residual activity ([15]; compound 10.0 µM): 101%
- residual activity ([16]; compound 1.0 µM): 95%
- residual activity ([16]; compound 10.0 µM): 100%
- residual activity ([17]; compound 1.0 µM): 187%
- residual activity ([17]; compound 10.0 µM): 191%
- residual activity ([18]; compound 1.0 µM): 114%
- residual activity ([18]; compound 10.0 µM): 108%
- residual activity ([19]; compound 1.0 µM): 101%
- residual activity ([19]; compound 10.0 µM): 101%
- residual activity ([20]; compound 1.0 µM): 88%
- residual activity ([20]; compound 10.0 µM): 99%
- residual activity ([21]; compound 1.0 µM): 77%
- residual activity ([21]; compound 10.0 µM): 87%
- residual activity ([22]; compound 1.0 µM): 97%
- residual activity ([22]; compound 10.0 µM): 91%
- residual activity ([23]; compound 1.0 µM): 115%
- residual activity ([23]; compound 10.0 µM): 113%
- residual activity ([24]; compound 1.0 µM): 97%
- residual activity ([24]; compound 10.0 µM): 85%
- residual activity ([25]; compound 1.0 µM): 73%
- residual activity ([25]; compound 10.0 µM): 81%
